ChEMBL document CHEMBL1201862, “PubChem BioAssay data set” (2004)
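Grown in 96-well plates, cells were treated for 48 hours with each compound at five concentrations. Insufficient inhibition: endpoint recorded as highest concentration tested. At the GI50, growth is halved.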 Calls of active or inactive are those of the source. Cut-off read from the data, not from the text of the source: active = GI50 up to about 1.1 µM and inactive = higher.

Legend:
Assay in all cases: DTP human tumour cell line panel, 48 h
A498 = test system: A498
CCRF-CEM = test system: CCRF-CEM
COLO 205 = test system: COLO 205
EKVX = test system: EKVX
HT-29 = test system: HT-29
IGROV-1 = test system: IGROV-1
K562 = test system: K562
MCF7 = test system: MCF7
MOLT-4 = test system: MOLT-4
Malme-3M = test system: Malme-3M
NCI-H23 = test system: NCI-H23
NCI/ADR-RES = test system: NCI/ADR-RES
OVCAR-5 = test system: OVCAR-5
PC-3 = test system: PC-3
RPMI-8226 = test system: RPMI-8226
SN12C = test system: SN12C
UACC-257 = test system: UACC-257
UACC-62 = test system: UACC-62
UO-31 = test system: UO-31

Row | Compound | GI50 (A498) | GI50 (CCRF-CEM) | GI50 (COLO 205) | GI50 (EKVX) | GI50 (HT-29) | GI50 (IGROV-1) | GI50 (K562) | GI50 (MCF7) | GI50 (MOLT-4) | GI50 (Malme-3M) | GI50 (NCI-H23) | GI50 (NCI/ADR-RES) | GI50 (OVCAR-5) | GI50 (PC-3) | GI50 (RPMI-8226) | GI50 (SN12C) | GI50 (UACC-257) | GI50 (UACC-62) | GI50 (UO-31)
1 | COc1ccc2nc3cc([N+](=O)[O-])ccc3c(NNc3ccc([N+](=O)[O-])cc3)c2c1 | 0.0951 µM (active) | 30.8 µM (inactive) | 17.2 µM (inactive) | 44.1 µM (inactive) | 7.46 µM (inactive) | 7.96 µM (inactive) | 7.19 µM (inactive) | 4.01 µM (inactive) | 25.5 µM (inactive) | 30.1 µM (inactive) | 28.4 µM (inactive) | 61.8 µM (inactive) | 3.91 µM (inactive) | 22.4 µM (inactive) | 18.7 µM (inactive) | 31.5 µM (inactive) | 1.83 µM (inactive) | 3.37 µM (inactive) | 24.7 µM (inactive)
2 | COc1ccc(C2=C(N)c3c(OC)cccc3C2=O)cc1 | > 100 µM (inactive) | > 100 µM (inactive) | > 100 µM (inactive) | > 100 µM (inactive) | > 100 µM (inactive) | 60.3 µM (inactive) | > 100 µM (inactive) | 60.5 µM (inactive) | > 100 µM (inactive) | > 100 µM (inactive) | > 100 µM (inactive) | > 100 µM (inactive) | > 100 µM (inactive) | > 100 µM (inactive) | > 100 µM (inactive) | > 100 µM (inactive) | > 10 µM (inactive) | > 100 µM (inactive) | > 100 µM (inactive)
3 | c1cc2c(cc1[C@@H]1OC[C@@H]3[C@H]1CO[C@H]3c1ccc3c(c1)OCO3)OCO2 | > 100 µM (inactive) | 44.8 µM (inactive) | > 100 µM (inactive) | 29.7 µM (inactive) | 60.8 µM (inactive) | 87.1 µM (inactive) | 46.8 µM (inactive) | 34.9 µM (inactive) | 28.4 µM (inactive) | 53.3 µM (inactive) | 65.9 µM (inactive) | 36.6 µM (inactive) | > 100 µM (inactive) | 51.4 µM (inactive) | 46.3 µM (inactive) | > 100 µM (inactive) | 13.7 µM (inactive) | > 100 µM (inactive) | 65.8 µM (inactive)
4 | COc1ccc(-c2c(N)n(-c3cc(OC)cc(OC)c3)c(=O)c3cc([N+](=O)[O-])ccc23)cc1 | 28 µM (inactive) | > 77.8 µM (inactive) | > 27.3 µM (inactive) | 38.3 µM (inactive) | > 53.2 µM (inactive) | > 52.6 µM (inactive) | 23.8 µM (inactive) | 29.3 µM (inactive) | > 60.7 µM (inactive) | > 100 µM (inactive) | > 92 µM (inactive) | > 66.1 µM (inactive) | > 100 µM (inactive) | 31.3 µM (inactive) | 2.76 µM (inactive) | > 100 µM (inactive) | > 90.4 µM (inactive) | 99.3 µM (inactive) | > 23.3 µM (inactive)
5 | Clc1ccc(Cc2nc3cc4ccccc4cc3[nH]2)cc1Cl | 13.6 µM (inactive) | 37.9 µM (inactive) | 18.5 µM (inactive) | 29.2 µM (inactive) | 10.2 µM (inactive) | 3.01 µM (inactive) | 6.15 µM (inactive) | 16.2 µM (inactive) | 2.37 µM (inactive) | 16 µM (inactive) | 27.3 µM (inactive) | 28.7 µM (inactive) | 32.5 µM (inactive) | 13 µM (inactive) | 31.3 µM (inactive) | 24 µM (inactive) | 18.1 µM (inactive) | 14.2 µM (inactive) | 14 µM (inactive)
6 | [N-]=[N+]=NC1=C(N=[N+]=[N-])c2cccc3cccc(c23)C1=O | > 100 µM (inactive) | 67.9 µM (inactive) | > 100 µM (inactive) | > 100 µM (inactive) | 76.7 µM (inactive) | 68.2 µM (inactive) | > 100 µM (inactive) | > 100 µM (inactive) | 39.8 µM (inactive) | > 100 µM (inactive) | > 100 µM (inactive) | > 100 µM (inactive) | > 100 µM (inactive) | > 100 µM (inactive) | > 100 µM (inactive) | > 100 µM (inactive) | > 100 µM (inactive) | > 100 µM (inactive) | > 100 µM (inactive)
7 | Clc1ccccc1-c1nnc2c(-c3ccccc3)nc3ccccc3n12 | > 100 µM (inactive) | 26 µM (inactive) | > 100 µM (inactive) | > 100 µM (inactive) | 47.3 µM (inactive) | > 100 µM (inactive) | > 100 µM (inactive) | 92 µM (inactive) | 42.6 µM (inactive) | 61.7 µM (inactive) | > 100 µM (inactive) | > 100 µM (inactive) | > 100 µM (inactive) | > 100 µM (inactive) | > 100 µM (inactive) | > 100 µM (inactive) | > 100 µM (inactive) | > 100 µM (inactive) | 2.07 µM (inactive)
8 | CN(Cc1cnc2nc(N)nc(N)c2n1)c1ccc(C(=O)NC2CCCCC2)cc1 | 24.4 µM (inactive) | 36.7 µM (inactive) | 31.3 µM (inactive) | 53.6 µM (inactive) | 16.2 µM (inactive) | 13.3 µM (inactive) | 7.33 µM (inactive) | 29 µM (inactive) | 34.7 µM (inactive) | 20.9 µM (inactive) | 36.1 µM (inactive) | > 100 µM (inactive) | 74.3 µM (inactive) | 7.64 µM (inactive) | > 100 µM (inactive) | 75 µM (inactive) | 21.3 µM (inactive) | 8.2 µM (inactive) | 87.3 µM (inactive)
9 | CCCNC(=O)CCC(C)[C@H]1CCC2C3C(C[C@H](OC(C)=O)[C@@]21C)[C@@]1(C)CCC2(C[C@H]1C[C@H]3OC(C)=O)OOC1(CCC(C)CC1)OO2 (stereo not given in full) | 22.2 µM (inactive) | 0.0376 µM (active) | 14.8 µM (inactive) | 13.6 µM (inactive) | 36.9 µM (inactive) | 1.87 µM (inactive) | 33.2 µM (inactive) | 34.7 µM (inactive) | 37.7 µM (inactive) | 18.6 µM (inactive) | 4.88 µM (inactive) | 16.6 µM (inactive) | 29.2 µM (inactive) | 19.8 µM (inactive) | 3.65 µM (inactive) | 43.6 µM (inactive) | 23.2 µM (inactive) | 43.5 µM (inactive) | 0.959 µM (active)
10 | O=C(O)CC1OCC=C2CN3CCC45C6=CC(=O)C(O)=C([N+](=O)[O-])C6=NC4C1C2CC35 (stereo not given) | > 100 µM (inactive) | 18.1 µM (inactive) | > 100 µM (inactive) | > 100 µM (inactive) | > 100 µM (inactive) | > 100 µM (inactive) | 92.3 µM (inactive) | > 100 µM (inactive) | 89.5 µM (inactive) | > 100 µM (inactive) | > 100 µM (inactive) | > 100 µM (inactive) | > 100 µM (inactive) | > 100 µM (inactive) | 31 µM (inactive) | > 100 µM (inactive) | > 100 µM (inactive) | 34.4 µM (inactive) | > 100 µM (inactive)
